The source of these data is publication PMC4880308, “Elongation Factor Tu Prevents Misediting of Gly-tRNA(Gly) Caused by the Design Behind the Chiral Proofreading Site of D-Aminoacyl-tRNA Deacylase” (PLoS Biology, 2016).

Data set [1] deals with T1, PfDTD (D-aminoacyl-tRNA deacylase from Plasmodium falciparum) (Plasmodium falciparum, UniProt Q8IIS0).
T1 construct: gene DTD; recombinant; C-terminal His-tagged U-15N protein for NMR; dimer with cross-subunit Gly-cisPro motif in the active site
T1 sequence (Q8IIS0 1-164): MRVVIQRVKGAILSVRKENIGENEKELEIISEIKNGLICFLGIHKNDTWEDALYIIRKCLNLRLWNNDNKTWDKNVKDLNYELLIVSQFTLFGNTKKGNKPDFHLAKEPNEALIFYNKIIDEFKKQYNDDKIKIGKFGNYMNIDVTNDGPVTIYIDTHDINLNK
In words: 2D […]-1H TROSY NMR titration (chemical shift perturbation). As to conditions: substrate analog; 50 mM HEPES pH 7.0, 50 mM NaCl; 0.2 mM protein, up to 3 mM ligand. The class given is binding.

Data set [2] concerns the molecule itself. In words: crystal structure; co-crystal of PfDTD with Gly3AA (molar ratio 1:20), P2(1), eight monomers in the asymmetric unit; 0.1 M HEPES pH 7.5, 0.4 M NaCl, 28% PEG3350.

`C[C@@H](N)C(=O)N[C@H]1[C@@H](O)[C@H](n2cnc3c(N)ncnc32)O[C@@H]1CO` [D-Ala3AA, D-alanyl-3′-aminoadenosine]: the “2D 15N-1H TROSY NMR titration (chemical shift perturbation)” value in data set [1] is “the data indicated binding of D-Ala3AA but not of L-Ala3AA”.

B1: D-aminoacyl-tRNA deacylase from Plasmodium falciparum (enzyme)
chain: MRVVIQRVKGAILSVRKENIGENEKELEIISEIKNGLICFLGIHKNDTWEDALYIIRKCLNLRLWNNDNKTWDKNVKDLNYELLIVSQFTLFGNTKKGNKPDFHLAKEPNEALIFYNKIIDEFKKQYNDDKIKIGKFGNYMNIDVTNDGPVTIYIDTHDINLNK
notes: D-aminoacyl-tRNA deacylase (DTD), Plasmodium falciparum, UniProt Q8IIS0; no tag is stated for the crystallised protein; The crystal also holds the small-molecule ligand Gly3AA; also called PfDTD; DTD; source: cloned, expressed, and purified as described in [15]
B1: the binding result in data set [2] is listed as “binds”.
